Assay results from patent US20230233559A1, “COMBINATION OF ZIDOVUDINE AND FLUOROQUINOLONE ANTIBIOTIC” (HELPERBY THERAPEUTICS LIMITED, priority 2019, published 2023).

Legend:
Assay type in all cases: cell-based
Conditions in all cases: fluoroquinolone alone
[1] = tested on: BAA2472 NDM-1 Klebsiella pneumoniae; experiment: Chequerboard MIC, log phase BAA2472
Procedure: (§1) The chequerboard method used in Example 1 followed the protocols detailed in Antimicrob Chemo (2013) 68, 374-384. Zidovudine and ciprofloxacin were obtained from commercially available sources. The bacteria used were BAA2469 NDM-1 Escherichia coli, BAA2470 NDM-1 Klebsiella pneumoniae, BAA2471 NDM-1 Escherichia coli, BAA2472 NDM-1 Klebsiella pneumoniae, and NCTC13443 NDM-1 Klebsiella pneumoniae. All strains were obtained from a commercial source and log phase growth of the bacteria was carried out using methods known in the art.
(§2) The effects of the combination of the present invention were examined by calculating the fractional inhibitory concentration index (FICI) of each combination, as follows:
(§3) (MIC of drug A, tested in combination)/(MIC of drug A, tested alone)+(MIC of drug B, tested in combination)/(MIC of drug B, tested alone).
(§4) The interaction of the combination was defined as showing synergy if the FICI was ≤0.5, no interaction if the FICI was >0.5 but <4.0 and antagonism if the FICI was >4.0.
(§5) The method and bacterial strains were identical to Example 1. Zidovudine and levofloxacin were obtained from commercially available sources. The effects of the combination of the present invention were examined by calculating the MIC for each drug alone and in combination in the same manner as Example 1.
as §5, with “moxifloxacin” for “levofloxacin”

[2] = tested on: BAA2469 NDM-1 Escherichia coli; experiment: Chequerboard MIC, log phase BAA2469
Procedure: as §1, §2, §3, §4, §5
as §5, with “moxifloxacin” for “levofloxacin”

[3] = tested on: BAA2470 NDM-1 Klebsiella pneumoniae; experiment: Chequerboard MIC, log phase BAA2470
Procedure: as §1, §2, §3, §4, §5
as §5, with “moxifloxacin” for “levofloxacin”

[4] = tested on: BAA2471 NDM-1 Escherichia coli; experiment: Chequerboard MIC, log phase BAA2471
Procedure: as §1, §2, §3, §4, §5
as §5, with “moxifloxacin” for “levofloxacin”

[5] = tested on: NCTC13443 NDM-1 Klebsiella pneumoniae; experiment: Chequerboard MIC, log phase NCTC13443
Procedure: as §1, §2, §3, §4, §5
as §5, with “moxifloxacin” for “levofloxacin”

| MIC [1] [µg/mL] | MIC [2] [µg/mL] | MIC [3] [µg/mL] | MIC [4] [µg/mL] | MIC [5] [µg/mL] | Structure (SMILES) |
| --- | --- | --- | --- | --- | --- |
| 32 | 8 | 8 | 32 | 32 | C[C@H]1COc2c(N3CCN(C)CC3)c(F)cc3c(=O)c(C(=O)O)cn1c23 [Levofloxacin, (2S)-7-fluoro-2-methyl-6-(4-methylpiperazin-1-yl)-10-oxo-4-oxa-1-azatricyclo[7.3.1.0^5,13]trideca-5(13),6,8,11-tetraene-11-carboxylic acid] |
| 64 | 64 | 8 | > 64 | 64 | O=C(O)c1cn(C2CC2)c2cc(N3CCNCC3)c(F)cc2c1=O [Ciprofloxacin, 1-cyclopropyl-6-fluoro-1,4-dihydro-4-oxo-7-(1-piperazinyl)-3-quinolinecarboxylic acid] |
| 128 | 16 | 32 | 128 | 128 | COc1c(N2C[C@@H]3CCCN[C@@H]3C2)c(F)cc2c(=O)c(C(=O)O)cn(C3CC3)c12 [Moxifloxacin, 7-[(4aS,7aS)-1,2,3,4,4a,5,7,7a-octahydropyrrolo[3,4-b]pyridin-6-yl]-1-cyclopropyl-6-fluoro-8-methoxy-4-oxoquinoline-3-carboxylic acid] |
